# Columns and labels:
# blood glucose = assay: Intranasal insulin in […] TDM, anesthesia-induced hyperglycemia model; format: in vivo, mouse; conditions: intranasal insulin alone, minus […] TDM
# Description: Intranasal administration of drugs or agents are possible in animal models e.g. mice and rats, although the nasal opening in is very small. In the experiments and results described herein, an anesthesia-induced hyperglycemia model was used (described in Examples above). Hyperglycemic animals were induced by an intraperitoneal (IP) injection containing xylazine-ketamine and blood glucose levels were monitored over a period of time. Immediately after the xylazine-ketamine injection, there was an increase in the blood glucose levels as shown in FIG. 2 (closed dark circles), and blood glucose levels were about 450 mg/dl. […] Blood glucose levels peak to about 482 mg/dl by 30 minutes after the xylazine-ketamine injection (FIG. 2). […] At about the 75 minute time point, blood glucose levels gradually returned to the baseline level in a normoglycemic mouse, or about 80-100 mg/dl.
# [1] = cited from earlier work
# [2] = whole-swallowed tablet, cited from earlier work
# mucociliary surfaces = conditions: concentrations far below those used in intranasal formulations; cited from earlier work
# [3] = cited from earlier work; remark: listed apart in the source
# blood D-glucose [4] = assay: Insulin eye drops with absorption enhancer in xylazine/ketamine-anesthetized hyperglycemic rats, blood D-glucose; format: in vivo, rat; conditions: for Blood Glucose: before eye drops
# blood D-glucose [5] = assay: Insulin nose drops with tetradecylmaltoside in rats, blood glucose; format: in vivo, rat; conditions: nose drop, same insulin concentration with 0.5% tetradecylmaltoside
# Description: Tetradecylmaltoside (TDM) in combination with insulin also produced a drop in blood D-glucose levels when administered in the form of a drop intranasally as well as via a drop by the ocular route. […] Thus, intranasal delivery and administration of the alkyl saccharide with drug results in lowering of blood glucose levels.
# [6] = tested on: Aspergillus niger (ATCC No. 16404); assay: Antimicrobial activity of alkylglycoside solutions, plate count log reduction; format: cell-based; conditions: 0.2%, BSA
# Description: (§1) 20110-2209. The viable microorganisms used in the invention were not more than five passages removed from the original ATCC culture. As described herein, one passage is defined as the transfer of organisms from an established culture to fresh medium and all transfers are counted.
# (§2) Cultures received from the ATCC are resuscitated according to the directions provided by the ATTC. Cells grown in broth were pelleted by centrifugation, resuspended in 1/20th the volume of fresh maintenance broth, and combined with an equal volume of 20% (v/v in water) sterile glycerol. Cells grown on agar were scraped from the surface into the maintenance broth also containing 10% glycerol broth. Small aliquots of the suspension were dispensed into sterile vials and the vials were stored in liquid nitrogen or in a mechanical freezer at a temperature no higher than about −50° C. When a fresh seed-stock vial was required, it was removed and used to inoculate a series of working stock cultures. These working stock cultures were then used periodically (each day in the case of bacteria and yeast) to start the inoculum culture.
# (§3) The culture conditions for the inoculum culture is substantially as described in Table IV. For example, suitable media can include but is not limited to, Soybean-Casein Digest or Sabouraud Dextrose Agar Medium. […]
# (§4) The suspension should be refrigerated if it is not used within 2 hours. To confirm the initial cfu per mL estimate, the number of cfu per mL in each suspension was determined using the conditions of media and microbial recovery incubation times listed in Table IV (e.g., from about 3 to about 7 days). This value serves to calibrate the size of inoculum used in the test. The bacterial and yeast suspensions were used within 24 hours of harvest; whereas the fungal preparation can be stored under refrigeration for up to 7 days.
# (§5) To determine which alkylglycoside formulations have antibacterial activity, the formulations were prepared in phosphate buffered saline (PBS) at pH 7. As a source of nutrition, either 1.5 mg/mL bovine serum albumin (BSA; see Tables V and VI) or 1 mg/mL of PYY was added (see Table VII) to the medium. BSA (CAS Number: 9048-46-8) was obtained from Sigma-Aldrich, St. Louis, Mo., USA, n-dodecyl-4-O-α-D-glucopyranosyl-β-D-glucopyranoside and n-tetradecyl-4-O-α-D-glucopyranosyl-β-D-glucopyranoside were obtained from Anatrace Inc., Maumee, Ohio, USA, and PYY was obtained from Bachem California Inc., Torrance, Calif., USA.
# (§6) Antibacterial activity of the alkylglycosides were conducted in four sterile, capped bacteriological containers of suitable size into which a sufficient volume of alkylglycoside solution had been transferred. Each container was inoculated with one of the prepared and standardized inoculums and mixed. The volume of the suspension inoculum was between about 0.5% and about 1.0% of the volume of the alkylglycoside solution. […]. To determine the level of inhibition of growth, or reduction of growth based on a logarithmic scale, the initial concentration of viable microorganisms in each test preparation was estimated based on the concentration of microorganisms in each of the standardized inoculum as determined by the plate-count method. The inoculated containers were then incubated at about 22.5° C.±2.5. The growth or non-growth of the microorganisms in each culture/container were again determined at day 14 and day 28. The number of cfu present in each calculation was determined by the plate-count procedure standard in the art for the applicable intervals. The change in the orders of magnitude of bacterium and/or fungi was then determined by subtracting the first calculated log 10 values of the concentrations of cfu per mL present at the start or beginning (e.g., day 0), from the log 10 values of the concentration of cfu per mL for each microorganism at the applicable test intervals (e.g., day 14 and day 28; see Tables V, VI and VII).
# [7] = tested on: Candida albicans (ATCC No. 10231); assay: as above; format: cell-based; conditions: 0.2%, BSA
# Description: as §1, §2, §3, §4, §5, §6
# [8] = tested on: Escherichia coli (ATCC No. 8739); assay: as above; format: cell-based; conditions: 0.2%, BSA; growth from initial count
# Description: as §1, §2, §3, §4, §5, §6
# [9] = tested on: Staphylococcus aureus (ATCC No. 6538); assay: as above; format: cell-based; conditions: 0.2%, BSA
# Description: as §1, §2, §3, §4, §5, §6
# [10] = Intranasal triptans with alkylsaccharide in rats, plasma levels by HPLC; format: in vivo;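 also: rats in groups of eight given 20 µL into one nostril, dose expressed as triptan free base, Cmax and Tmax read from plasma concentration–time curves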
# Experimental: Each set of drug solutions is administered to six groups of eight rats each by 20 uL instillation to a single nare of each animal. […] After the last blood sample is collected each animal is cuthanizcd with CO2. After blood collection, plasma is immediately prepared from each blood sample using lithium/heparin as the anticoagulant. Plasma samples are stored at −70° C. until analyzed. […] The observed Tmax values from each plot is determined by inspection of the concentration vs time plots and recorded as shown in Table XII. The doses designated in this table reflect amounts of triptan free base in each case.
# human nasal epithelium = conditions: in vivo
# food intake = conditions: injection; less than usual, on average; cited from earlier work
# [11] = Naratriptan sublingual spray two-way crossover study in patients; format: in vivo; conditions: in the presence of 0.18-0.2% alkylsaccharide (dodecylmaltoside)
# Experimental: Manufacturing process: Naratriptan hydrochloride salt is dissolved in water and required quantity of polyethylene glycol or ethanol is added. The alkyl glycoside, flavors, aspartame are next dissolved in the solution. Final adjustment of volume is made with water. The sublingual formulation with and without dodecylmaltoside alkylsaccharide is administered using a metered spray pump to 20 patients in a two way, two period cross over study.
# [12] = Naratriptan 0.22 mg/kg intranasal, alkylsaccharide 0.02%
# [13] = Naratriptan 0.22 mg/kg intranasal, alkylsaccharide 0.05%
# [14] = Naratriptan 0.22 mg/kg intranasal, alkylsaccharide 0.1%
# [15] = Naratriptan 0.22 mg/kg intranasal, alkylsaccharide 0.5%
# [16] = Naratriptan 0.22 mg/kg intranasal, alkylsaccharide 2%
# [17] = Sumatriptan 6.2 mg/kg intranasal, alkylsaccharide 0.02%
# [18] = Sumatriptan 6.2 mg/kg intranasal, alkylsaccharide 0.05%
# [19] = Sumatriptan 6.2 mg/kg intranasal, alkylsaccharide 0.1%
# [20] = Sumatriptan 6.2 mg/kg intranasal, alkylsaccharide 0.5%
# [21] = Sumatriptan 6.2 mg/kg intranasal, alkylsaccharide 2%
compound,measurement,setting,value
insulin alone: insulin (Humalog) given intranasally without TDM,return to normoglycemic levels,blood glucose,never return to normoglycemic levels
same,time mark at which blood glucose starts to decline,blood glucose,~120 min
"COc1ccc2[nH]cc(CCNC(C)=O)c2c1 [melatonin, 5-methoxy-N-acetyltryptamine]",bioavailability (estimated),[1]; oral administration,30-50%
same,absolute bioavailability,"[1]; oral tablets, normal healthy volunteers, DeMuro et al. (2000)",approximately 15%
"Cc1cc2c(s1)Nc1ccccc1N=C2N1CCN(C)CC1 [olanzapine, Olanzapine]",time to peak concentrations,[2]; oral dose,approximately 6 hours
same,dose metabolized by first pass before reaching systemic circulation,[2],approximately 40%
benzalkonium chloride,toxicity to mucociliary surfaces,mucociliary surfaces,significant disruption of the mucociliary surfaces
O=C(c1ccc(OCCN2CCCCC2)cc1)c1c(-c2ccc(O)cc2)sc2cc(O)ccc12 [raloxifene],water solubility,[3],approx. 0.25 mg/L
"CCCCCCCCCCCCCCO[C@@H]1O[C@H](CO)[C@@H](O[C@H]2O[C@H](CO)[C@@H](O)[C@H](O)[C@H]2O)[C@H](O)[C@H]1O [tetradecyl maltoside, n-tetradecyl-4-O-α-D-glucopyranosyl-β-D-glucopyranoside]",hypoglycemic effect / insulin absorption enhancement,blood D-glucose [4]; eye drops 0.2% insulin + 0.5% enhancer,effective
same,hypoglycemic effect / insulin absorption enhancement,blood D-glucose [4]; eye drops 0.2% insulin + […] enhancer,effective
same,effect on blood glucose levels,blood D-glucose [4]; eye drops 0.2% regular porcine insulin with […] tetradecylmaltoside,prompt and prominent drop in blood glucose levels
same,Blood Glucose,blood D-glucose [4]; time −10 min,311 mg/dL
same,Blood Glucose,blood D-glucose [4]; time −20 min,319 mg/dL
same,effect on blood glucose levels,blood D-glucose [5],decrease even more
same,"Log Reductions, Day 14",[6],0.5 orders of orders of magnitude reduction
same,"Log Reductions, Day 28",[6]; growth from initial count,No growth
same,"Log Reductions, Day 14",[7],3.0 orders of orders of magnitude reduction
same,"Log Reductions, Day 28",[7],≧5.4 orders of orders of magnitude reduction
same,"Log Reductions, Day 28",[8],No growth
same,"Log Reductions, Day 14",[9],≧5 orders of orders of magnitude reduction
same,"Log Reductions, Day 28",[9],≧5 orders of orders of magnitude reduction
same,Ratio Cmax(alkylsacch)/Cmax(No alkylsacch),[10]; [12],≦1.5
same,Tmax,[10]; [12],~60 min
same,Ratio Cmax(alkylsacch)/Cmax(No alkylsacch),[10]; [13],≧1.5
same,Tmax,[10]; [13],~5 to 15 min
same,Ratio Cmax(alkylsacch)/Cmax(No alkylsacch),[10]; [14],≧1.5
same,Tmax,[10]; [14],~5 to 15 min
same,Ratio Cmax(alkylsacch)/Cmax(No alkylsacch),[10]; [15],≧1.5
same,Tmax,[10]; [15],~5 to 15 min
same,Ratio Cmax(alkylsacch)/Cmax(No alkylsacch),[10]; [16],≧1.5
same,Tmax,[10]; [16],~5 to 15 min
same,Tmax,"[10]; Rizatriptan […] intranasal, alkylsaccharide 0.02%",~60 min
same,Tmax,"[10]; Rizatriptan […] intranasal, alkylsaccharide 0.05%",~5 to 15 min
same,Tmax,"[10]; Rizatriptan […] intranasal, alkylsaccharide 0.1%",~5 to 15 min
same,Tmax,"[10]; Rizatriptan […] intranasal, alkylsaccharide 0.5%",~5 to 15 min
same,Tmax,"[10]; Rizatriptan […] intranasal, alkylsaccharide 2%",~5 to 15 min
same,Ratio Cmax(alkylsacch)/Cmax(No alkylsacch),[10]; [17],≦1.5
same,Tmax,[10]; [17],~60 min
same,Ratio Cmax(alkylsacch)/Cmax(No alkylsacch),[10]; [18],≧1.5
same,Tmax,[10]; [18],~5 to 15 min
same,Ratio Cmax(alkylsacch)/Cmax(No alkylsacch),[10]; [19],≧1.5
same,Tmax,[10]; [19],~5 to 15 min
same,Ratio Cmax(alkylsacch)/Cmax(No alkylsacch),[10]; [20],≧1.5
same,Tmax,[10]; [20],~5 to 15 min
same,Ratio Cmax(alkylsacch)/Cmax(No alkylsacch),[10]; [21],≧1.5
same,Tmax,[10]; [21],~5 to 15 min
same,irritation of the nasal mucosa,human nasal epithelium,no observable irritation
PYY: gut hormone fragment peptide PYY3-36,reduction of food eaten,food intake,30%
CNS(=O)(=O)CCc1ccc2[nH]cc(C3CCN(C)CC3)c2c1 [naratriptan],bioavailability across the sublingual mucosal membranes,[11],little increase
